System: human JAK1
Assay: In vitro JAK kinase assay (HTRF, phosphorylation of biotinylated peptide), JAK1
Assay type: biochemical
Details: ratio of JAK2 IC50 to JAK1 IC50, 1 mM ATP
Method: Compounds herein were tested for inhibitory activity of JAK targets according to the following in vitro assay described in Park et al., Analytical Biochemistry 1999, 269, 94-104. The catalytic domains of human JAK1 (a.a. 837-1142), JAK2 (a.a. 828-1132) and JAK3 (a.a. 781-1124) were expressed using baculovirus in insect cells and purified. The catalytic activity of JAK1, JAK2 or JAK3 was assayed by measuring the phosphorylation of a biotinylated peptide. The phosphorylated peptide was detected by homogenous time resolved fluorescence (HTRF). IC50s of compounds were measured for each kinase in the 40 μL reactions that contain the enzyme, ATP and 500 nM peptide in 50 mM Tris (pH 7.8) buffer with 100 mM NaCl, 5 mM DTT, and 0.1 mg/mL (0.01%) BSA. For the 1 mM IC50 measurements, ATP concentration in the reactions was 1 mM. Reactions were carried out at room temperature for 1 hour and then stopped with 20 μL 45 mM EDTA, 300 nM SA-APC, 6 nM Eu-Py20 in assay buffer (Perkin Elmer, Boston, Mass.). Binding to the Europium labeled antibody took place for 40 minutes and HTRF signal was measured on a PHERA star plate reader (BMG, Cary, N.C.). The Example compounds were each tested in the Example A assay (see Table 1 for data for the compounds of the examples as tested by the assay of Example A at 1 mM ATP).

Molecule | JAK2/JAK1
C[C@@H](O)c1nc2cnc3ccsc3c2n1C1CCN(CC(F)(F)F)CC1 [Example 15, (1R)-1-{1-[1-(2,2,2-Trifluoroethyl)piperidin-4-yl]-1H-imidazo[4,5-d]thieno[3,2-b]pyridin-2-yl}ethanol] | >9
C[C@@H](O)c1nc2cnc3ccsc3c2n1[C@H]1CC[C@H](CNS(C)(=O)=O)OC1 [Example 75, N-[((2R,5S)-5-{2-[(1R)-1-Hydroxyethyl]-1H-imidazo[4,5-d]thieno[3,2-b]pyridin-1-yl}tetrahydro-2H-pyran-2-yl)methyl]methanesulfonamide] | >10
C[C@@H](O)c1nc2cnc3ccsc3c2n1[C@H]1CC[C@H](CF)CC1 [Example 12, (1R)-1-{1-[trans-4-(Fluoromethyl)cyclohexyl]-1H-imidazo[4,5-d]thieno[3,2-b]pyridin-2-yl}ethanol] | >10
[(1R,2S,4S)-4-(2-Methyl-1H-imidazo[4,5-d]thieno[3,2-b]pyridin-1-yl)-2-hydroxycyclohexyl]acetonitrile and [(1S,2R,4R)-4-(2-methyl-1H-imidazo[4,5-d]thieno[3,2-b]pyridin-1-yl)-2-hydroxycyclohexyl]acetonitrile [41 (first peak)] | >10
C[C@@H](O)c1nc2cnc3ccsc3c2n1[C@H]1CC[C@H](CNC(=O)N(C)C)CC1 [Example 81, N′-[(trans-4-{2-[(1R)-1-Hydroxyethyl]-1H-imidazo[4,5-d]thieno[3,2-b]pyridin-1-yl}cyclohexyl)methyl]-N,N-dimethylurea] | >10
C[C@@H](O)c1nc2cnc3ccsc3c2n1[C@H]1CCCN(C(=O)CCC(F)(F)F)C1 [Example 52, (1R)-1-{1-[(3S)-1-(4,4,4-Trifluorobutanoyl)piperidin-3-yl]-1H-imidazo[4,5-d]thieno[3,2-b]pyridin-2-yl}ethanol] | >10
C[C@@H](O)c1nc2cnc3ccsc3c2n1C1CCC(O)(CC#N)CC1 (single isomer, unassigned) [24 (first peak)] | >10
C[C@H](O)c1nc2cnc3ccsc3c2n1[C@H]1CC[C@H](CC#N)OC1 [Example 45, ((2R,5S)-5-{2-[(1S)-1-Hydroxyethyl]-1H-imidazo[4,5-d]thieno[3,2-b]pyridin-1-yl}tetrahydro-2H-pyran-2-yl)acetonitrile] | >10
CNC(C)c1nc2cnc3ccsc3c2n1[C@H]1CC[C@H](CC#N)OC1 (stereo partly drawn) [Example 70, ((2R,5S)-5-{2-[1-(Methylamino)ethyl]-1H-imidazo[4,5-d]thieno[3,2-b]pyridin-1-yl}tetrahydro-2H-pyran-2-yl)acetonitrile] | >10
C[C@@H](O)c1nc2cnc3ccsc3c2n1[C@H]1CC[C@H](CC#N)OC1 [Example 20, ((2R,5S)-5-{2-[(1R)-1-Hydroxyethyl]-1H-imidazo[4,5-d]thieno[3,2-b]pyridin-1-yl}tetrahydro-2H-pyran-2-yl)acetonitrile] | >10
CC(N)c1nc2cnc3ccsc3c2n1[C@H]1CC[C@H](CC#N)OC1.O=C(O)C(F)(F)F (stereo partly drawn) [Example 68, {(2R,5S)-5-[2-(1-Aminoethyl)-1H-imidazo[4,5-d]thieno[3,2-b]pyridin-1-yl]tetrahydro-2H-pyran-2-yl}acetonitrile trifluoroacetate] | >10
C[C@@H](O)c1nc2cnc3ccsc3c2n1C1CCN(CC#N)CC1.O=C(O)C(F)(F)F [Example 61, (4-{2-[(1R)-1-Hydroxyethyl]-1H-imidazo[4,5-d]thieno[3,2-b]pyridin-1-yl}piperidin-1-yl)acetonitrile trifluoroacetate] | >10

Next, values leading:

JAK2/JAK1 | Molecule
>10 | C[C@@H](O)c1nc2cnc3ccsc3c2n1[C@H]1CCC(CO)OC1 (stereo partly drawn) [Example 19, (1R)-1-{1-[(3S)-6-(Hydroxymethyl)tetrahydro-2H-pyran-3-yl]-1H-imidazo[4,5-d]thieno[3,2-b]pyridin-2-yl}ethanol]
>10 | N#CC[C@H]1CC[C@H](n2c(C3CC3)nc3cnc4ccsc4c32)CC1 [Example 26, [trans-4-(2-Cyclopropyl-1H-imidazo[4,5-d]thieno[3,2-b]pyridin-1-yl)cyclohexyl]acetonitrile]
>10 | CCc1nc2cnc3ccsc3c2n1[C@H]1CC[C@H](CC#N)OC1 [Example 39, [(2R,5S)-5-(2-Ethyl-1H-imidazo[4,5-d]thieno[3,2-b]pyridin-1-yl)tetrahydro-2H-pyran-2-yl]acetonitrile]
>6 | C[C@@H](O)c1nc2cnc3ccsc3c2n1[C@H]1CC[C@@H](n2cncn2)CC1 [Example 6, (1R)-1-{1-[cis-4-(1H-1,2,4-Triazol-1-yl)cyclohexyl]-1H-imidazo[4,5-d]thieno[3,2-b]pyridin-2-yl}ethanol]
>10 | C[C@@H](O)c1nc2cnc3ccsc3c2n1[C@H]1CCN(CCCC#N)C1 [Example 65, 4-((3S)-3-{2-[(1R)-1-Hydroxyethyl]-1H-imidazo[4,5-d]thieno[3,2-b]pyridin-1-yl}pyrrolidin-1-yl)butanenitrile]
>10 | C[C@@H](O)c1cc2cnc3ccsc3c2n1[C@H]1CC[C@H](CC#N)CC1 [Example 23, (trans-4-{7-[(1R)-1-Hydroxyethyl]-8H-pyrrolo[2,3-d]thieno[3,2-b]pyridin-8-yl}cyclohexyl)acetonitrile]
>3 | C[C@@H](O)c1nc2cnc3ccsc3c2n1[C@H]1CCCOC1 [Example 1, (1R)-1-{1-[(3S)-Tetrahydro-2H-pyran-3-yl]-1H-imidazo[4,5-d]thieno[3,2-b]pyridin-2-yl}ethanol]
>10 | C[C@@H](O)c1nc2cnc3ccsc3c2n1C1CCN(CCCC(F)(F)F)CC1 [Example 60, (1R)-1-{1-[1-(4,4,4-Trifluorobutyl)piperidin-4-yl]-1H-imidazo[4,5-d]thieno[3,2-b]pyridin-2-yl}ethanol]
>10 | CCC(=O)NC[C@H]1CC[C@H](n2c(CC#N)nc3cnc4ccsc4c32)CC1 [Example 89, N-({trans-4-[2-(Cyanomethyl)-1H-imidazo[4,5-d]thieno[3,2-b]pyridin-1-yl]cyclohexyl}methyl)propanamide]
>10 | C[C@@H](O)c1nc2cnc3ccsc3c2n1[C@H]1CC[C@H](CCS(C)(=O)=O)CC1 [Example 5, (1R)-1-(1-{trans-4-[2-(Methylsulfonyl)ethyl]cyclohexyl}-1H-imidazo[4,5-d]thieno[3,2-b]pyridin-2-yl)ethanol]
>10 | CC(=O)NC(C)c1nc2cnc3ccsc3c2n1[C@H]1CC[C@H](CC#N)OC1 (stereo partly drawn) [Example 69, N-(1-{1-[(3S,6R)-6-(Cyanomethyl)tetrahydro-2H-pyran-3-yl]-1H-imidazo[4,5-d]thieno[3,2-b]pyridin-2-yl}ethyl) acetamide]
>5 | CNS(=O)(=O)C[C@H]1CC[C@H](n2c([C@@H](C)O)nc3cnc4ccsc4c32)CC1 [Example 14, 1-(trans-4-{2-[(1R)-1-hydroxyethyl]-1H-imidazo[4,5-d]thieno[3,2-b]pyridin-1-yl}cyclohexyl)-N-methylmethanesulfonamide]
>10 | N#CCc1nc2cnc3ccsc3c2n1[C@H]1CC[C@@H](CC#N)OC1 [Example 74, {(2S,5S)-5-[2-(Cyanomethyl)-1H-imidazo[4,5-d]thieno[3,2-b]pyridin-1-yl]tetrahydro-2H-pyran-2-yl}acetonitrile]

From patent US10370387B2, “Tricyclic fused thiophene derivatives as JAK inhibitors” (Incyte Corporation, priority 2012, dated 2019)
